{"source": "paper PMC4232042", "about": "(Drug Design, Development and Therapy, 2014)", "target": "Kv1.5 (Homo sapiens, UniProt P22460)", "sequence (P22460 whole entry)": "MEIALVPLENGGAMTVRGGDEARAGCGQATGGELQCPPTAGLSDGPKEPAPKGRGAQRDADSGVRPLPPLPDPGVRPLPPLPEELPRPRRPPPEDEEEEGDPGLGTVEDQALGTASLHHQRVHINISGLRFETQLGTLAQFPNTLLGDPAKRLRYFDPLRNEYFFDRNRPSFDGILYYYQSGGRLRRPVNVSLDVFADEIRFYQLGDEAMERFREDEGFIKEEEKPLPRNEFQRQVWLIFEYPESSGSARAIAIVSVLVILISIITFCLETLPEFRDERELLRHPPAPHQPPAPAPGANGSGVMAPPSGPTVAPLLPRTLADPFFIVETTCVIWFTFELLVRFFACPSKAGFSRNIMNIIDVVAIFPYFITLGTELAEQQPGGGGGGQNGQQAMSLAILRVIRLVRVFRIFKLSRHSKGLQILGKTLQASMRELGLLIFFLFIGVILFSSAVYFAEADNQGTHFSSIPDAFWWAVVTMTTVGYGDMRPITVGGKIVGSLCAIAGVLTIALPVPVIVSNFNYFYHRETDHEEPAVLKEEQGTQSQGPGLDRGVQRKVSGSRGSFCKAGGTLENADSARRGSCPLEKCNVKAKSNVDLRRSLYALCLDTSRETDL", "assay": "whole-cell patch clamp in HEK […] cells stably expressing Kv1.[…]", "assay_type": "cell-based", "data": [{"smiles": "Cc1ncc2n1-c1ccc(Cl)cc1C(c1ccccc1F)=NC2", "note": "[midazolam]", "values": [{"measurement": "IC50", "result": "17 ± 4.2", "unit": "µM"}]}]}
